Results published in US5057493A, “Novel antibiotics R106” (priority 1988, dated 1991).
Starred links: 1 amine or outer side, 2 acyl side, 3 side chain; linkers in the order of their positions; H or OH if unused. Non-standard residues stand in square brackets, D forms with d. Residues, ends and D or L forms follow the SMILES beside them. ξ: configuration not given here. X2 = CN(C(C(=O)[*:2])C(O)c1ccccc1)[*:1]; ξNMeVal(3-OH) = CNC(C(=O)O)C(C)(C)O; X3 = C=C(C)C(C(=O)[*:2])N(C)[*:1]; NMeF = CN[CH](Cc1ccccc1)C(=O)O; X1 = CCC(C)C(O[*:1])C(=O)[*:2]; NMeV = CN[CH](C(=O)O)C(C)C; Hiv = CC(C)[CH](O)C(=O)O

What was measured:
[1] = tested on: Candida albicans TIMM 0136; experiment: MIC by agar dilution method, casitone agar; type: cell-based; details: Table 5
Experimental: (§1) The antibiotics R106 of the present invention are active against various fungi including pathogenic fungi. The minimum inhibitory concentration (MIC) of each antibiotic against various fungi was determined by the agar dilution method using casitone agar medium (2.0% glucose, 0.9% bacto-casitone, 1.0% yeast extract, 0.1% KH2 PO4, 0.1% Na2 HPO4, 1.0% sodium citrate, 2.0% agar: concentrations are all by w/v).

[2] = tested on: Candida albicans TIMM 0171; experiment: MIC by agar dilution method, casitone agar; type: cell-based; details: Table 5
Experimental: as §1

[3] = tested on: Candida albicans TIMM 1768; experiment: MIC by agar dilution method, casitone agar; type: cell-based; details: Table 5
Experimental: as §1

[4] = tested on: Candida kefyr TIMM 0301; experiment: MIC by agar dilution method, casitone agar; type: cell-based; details: Table 5
Experimental: as §1

[5] = 50% lethal dose (LD50) in mice; type: in vivo
Excerpt: All of the antibiotics R106 show low toxicity. The results of 50% lethal dose (LD50) obtained when each of representative compounds of the present invention was given to mice intravenously, intraperitoneally and orally are shown in Table 7.

[6] = tested on: Candida glabrata TIMM 1062; experiment: MIC by agar dilution method, casitone agar; type: cell-based; details: Table 5
Experimental: as §1, with “The” for “The antibiotics R106 of the present invention are active against various fungi including pathogenic fungi. The”
(§2) Each minimum growth inhibitory concentration was determined after culturing at 27° C. for 4 days.

[7] = tested on: Cryptococcus neoformans TIMM 0354; experiment: MIC by agar dilution method, casitone agar; type: cell-based; details: Table 5
Experimental: as §1, with “The” for “The antibiotics R106 of the present invention are active against various fungi including pathogenic fungi. The”
as §2

| SMILES | minimum inhibitory concentration (MIC) [1] | minimum inhibitory concentration (MIC) [2] | minimum inhibitory concentration (MIC) [3] | minimum inhibitory concentration (MIC) [4] | LD50 ([5]; i.p.) | LD50 ([5]; i.v.) | LD50 ([5]; p.o.) | minimum inhibitory concentration (MIC) [6] | minimum inhibitory concentration (MIC) [7] |
| --- | --- | --- | --- | --- | --- | --- | --- | --- | --- |
| CCC(C)C1OC(=O)C(C(C)(C)O)N(C)C(=O)C(CC(C)C)NC(=O)C(C(C)C)N(C)C(=O)C(CC(C)C)NC(=O)C2CCCN2C(=O)C(Cc2ccccc2)N(C)C(=O)C(Cc2ccccc2)NC(=O)C(C(C)C)N(C)C1=O (stereo not drawn) [Compound 9] (cyclo([ξNMeVal(3-OH)][X1][NMeV]F[NMeF]PL[NMeV]L); configuration not given here) | ≤ 0.05 | ≤ 0.05 | 0.20 | 0.20 | > 200 mg/kg | > 100 mg/kg | > 200 mg/kg | 0.39 | 25 |
| CCC(C)C1NC(=O)C2CCCN2C(=O)C(Cc2ccccc2)N(C)C(=O)C(Cc2ccccc2)NC(=O)C(C(C)C)N(C)C(=O)C(C(C)C)OC(=O)C(C(C)(C)O)N(C)C(=O)C(CC(C)C)NC(=O)C(C(C)C)N(C)C1=O (stereo not drawn) [Compound 2] (cyclo([ξNMeVal(3-OH)][Hiv][NMeV]F[NMeF]PI[NMeV]L); configuration not given here) | 0.10 | 0.10 | 0.78 | 0.20 | > 200 mg/kg | > 100 mg/kg | > 200 mg/kg | 0.20 | 1.56 |
| CCC(C)C1NC(=O)C2CCCN2C(=O)C(Cc2ccccc2)N(C)C(=O)C(Cc2ccccc2)NC(=O)C(C(C)C)N(C)C(=O)C(C(C)CC)OC(=O)C(C(C)C)N(C)C(=O)C(CC(C)C)NC(=O)C(C(C)C)N(C)C1=O (stereo not drawn) [Compound 7] (cyclo([X1][NMeV]F[NMeF]PI[NMeV]L[NMeV]); configuration not given here) | 3.12 | 1.56 | 3.12 | 25 | > 200 mg/kg | > 100 mg/kg | > 200 mg/kg | > 25 | > 25 |
| CCC(C)C1NC(=O)C2CCCN2C(=O)C(C(O)c2ccccc2)N(C)C(=O)C(Cc2ccccc2)NC(=O)C(C(C)C)N(C)C(=O)C(C(C)CC)OC(=O)C(C(C)(C)O)N(C)C(=O)C(CC(C)C)NC(=O)C(C(C)C)N(C)C1=O (stereo not drawn) [Compound 5] (cyclo([X2]PI[NMeV]L[ξNMeVal(3-OH)][X1][NMeV]F); configuration not given here) | ≤ 0.05 | ≤ 0.05 | ≤ 0.05 | 0.20 | > 200 mg/kg | > 100 mg/kg | > 200 mg/kg | 0.20 | 3.12 |
| C=C(C)C1C(=O)OC(C(C)CC)C(=O)N(C)C(C(C)C)C(=O)NC(Cc2ccccc2)C(=O)N(C)C(Cc2ccccc2)C(=O)N2CCCC2C(=O)NC(C(C)CC)C(=O)N(C)C(C(C)C)C(=O)NC(CC(C)C)C(=O)N1C (stereo not drawn) [Compound 14] (cyclo([X3][X1][NMeV]F[NMeF]PI[NMeV]L); configuration not given here) | 1.56 | 1.56 | 12.5 | 6.25 | – | – | – | 12.5 | > 25 |
